Test results: patent publication US20240197728A1, “METHODS AND PHARMACEUTICAL COMPOSITIONS FOR TREATING REFRACTORY EPILEPSY” (INSERM (INSTITUT NATIONAL DE LA SANTÉ ET DE LA RECHERCHE …, priority 2021, published 2024)

Assays:
KCC2 = assay: Immunoprecipitation/immunoblot of KCC2 phosphorylation and expression in hippocampo-cortical slices; type: cell-based, rat; conditions: for change of total KCC2 expression: slices; for change of total KCC2 expression / change of KCC2 phosphorylation at S940 / change of KCC2 phosphorylation at T906 / change of KCC2 phosphorylation at T1007: vs DMSO
Description: (§1) For all experiments on hippocampal cultures, neurons were pre-incubated for 2 hours with either DMSO, PCPZ or CLP257 in a CO2 incubator set at 37° C. Drugs were added directly to the culture medium. For electrophysiology experiments, neurons were also recorded in presence of these drugs in the bath. For biochemistry experiments on rat hippocampo-cortical slices, slices were incubated with either DMSO (vehicle), CLP257, PCPZ, WNK463 or sodium orthovanadate for 2 hours in interface chambers set at 37° C. For human tissue experiments, slices were pre-incubated with either DMSO, CLP257 or PCPZ for 2 hours in interface chambers set at 37° C. and then also recorded in presence of these compounds.
(§2) 8-weeks old Sprague Dawley male rats were anesthetized by intraperitoneal ketamine/xylazine injection (120/10 mg/kg) and perfused transcardially with ice-cold (0-4° C.), oxygenated solution (O2/CO2 95/5%), containing (in mM): N-methyl-d-glucamine 93, KCl 2.5, NaH2PO4 1.2, NaHCO330, HEPES 20, D-glucose 20, ascorbic acid 5, sodium pyruvate 3, MgSO4 10 and CaCl2) 0.5 (300-310 mOsm, pH7.4). Brains were removed and transverse hippocampo-cortical slices (400 m thick) were prepared in the same solution using a vibratome (HM650V, Microm). Slices were then incubated for 2-hours with DMSO, the KCC2 enhancers (CLP257, PCPZ, WNK43) or sodium orthovanadate in an interface chamber containing artificial cerebrospinal fluid (ACSF) composed of (in mM): D-glucose 10, KCl 3.5, NaHOC3 26, NaH2PO4 1.25, NaCl 126, CaCl2) 1.6 and MgCl2 1.2 (290 mOsm), equilibrated with 5% CO2 in 95% 02. After the treatments, slices were washed with cold PBS, instantaneously frozen with liquid nitrogen and stored at −80° C.
(§3) Slices were mechanically lysed on ice, using a 2 mL Dounce, in a buffer containing (in mM): Tris/HCl, pH 7.5 50, EGTA 1, EDTA 1, sodium orthovanadate 1, sodium-B-glycerophosphate 10, sodium fluoride 50, sodium pyrophosphate 5, sucrose 270, benzamidine 1, phenylmethylsulfonyl fluoride 2, Triton […], (v/v) 2-mercaptoethanol 0.1% and protease inhibitors (Roche). After complete homogenization, samples were centrifuged (16,000×g at 4° C. for 10 min) and the supernatant was collected. Protein quantification was done using Pierce BCA Protein Assay kit (Thermo Scientific) with BSA as standard.
The following phosphorylation site-specific antibodies: anti-KCC3A phospho Thr1048 (0.35 mg/ml, sheep, [S0961C] 1st bleed, Dundee), anti-KCC3A phospho Thr 991 (0.26 mg/ml, sheep, [S959C] 1st bleed, Dundee) were first incubated for 30 min at 4° C. with the corresponding non-phosphorylated peptide (10 mg/ml, Dundee).
Phospho-antibodies or anti-KCC2 antibodies (07-432; Millipore) were then coupled with protein-G-Sepharose (4 Fast Flow; Sigma-Aldrich) at a ratio of […] of antibody per 100 μl of beads, for 2 h at 4° C. without agitation. 1.5 mg of clarified cell lysate was incubated with the antibody-coupled bead suspension, overnight at 4° C. under gentle agitation. The supernatant was collected after centrifugation and beads were washed twice with NaCl solution (0.25M NaCl in 1×PBS) and twice with PBS alone. Bound proteins were eluted with 2×LDS sample buffer (Invitrogen) containing 0.5% (v/v) 2-mercaptoethanol and denaturated at 75° C. for 20 min (IP with phospho-antibodies) or 37° C. for 1 h (IP with anti-KCC2 antibodies) before centrifugation (13,000×g at 4° C. for 15-20 min).
Samples were subjected to electrophoresis on polyacrylamide gradient gels (4-12% bis-tris gels) and transferred to nitrocellulose membranes. Membranes were rinsed with TBS-tween solution (TBST; Invitrogen) and blocked with 5% (w/v) skim milk. The membranes were then immunoblotted in 5% (w/v) skim milk in TBST with a primary antibody against KCC2 (rabbit, 07-432; Millipore; 1:1000), or phosphotyrosine (mouse, clone 4G10, Millipore, 1:1000), and a mouse primary antibody against neuron-specific beta-III tubulin overnight at 4° C. (clone 2G10; T8578; Sigma-Aldrich; 1:1000). […]

SPAK = assay: Immunoblot of SPAK phosphorylation and expression in hippocampo-cortical slices; type: cell-based, rat; conditions: vs DMSO
Description: as §1, §2, §3
Samples were subjected to electrophoresis on polyacrylamide gradient gels (4-12% bis-tris gels) and transferred to nitrocellulose membranes. Membranes were rinsed with TBS-tween solution (TBST; Invitrogen) and blocked with 5% (w/v) skim milk. […] Fluorescence was detected and the relative intensities of immunoblot bands were determined using Odyssey infrared imaging system (LI-COR Bioscience). […]

SMILES | change of tyrosine phosphorylation of KCC2 (KCC2; 100 μM CLP257, 2 h) | change of total KCC2 expression (KCC2; 100 μM CLP257, 2 h) [%] | change of KCC2 phosphorylation at S940 (KCC2; 100 μM CLP257, 2 h) [%] | change of KCC2 phosphorylation at T906 (KCC2; 100 μM CLP257, 2 h) [%] | change of KCC2 phosphorylation at T1007 (KCC2; 100 μM CLP257, 2 h) [%] | change of SPAK phosphorylation (S373 residue) (SPAK; 100 μM CLP257, 2 h) | change of total expression of SPAK (SPAK; 100 μM CLP257, 2 h) [%] | change of tyrosine phosphorylation of KCC2 (KCC2; 10 μM PCPZ, 2 h) | change of total KCC2 expression (KCC2; 10 μM PCPZ, 2 h) | change of KCC2 phosphorylation at S940 (KCC2; 10 μM PCPZ, 2 h) | change of KCC2 phosphorylation at T906 (KCC2; 10 μM PCPZ, 2 h) [%] | change of KCC2 phosphorylation at T1007 (KCC2; 10 μM PCPZ, 2 h) | change of SPAK phosphorylation (S373 residue) (SPAK; 10 μM PCPZ, 2 h)
O=C1N=C(N2CCCCN2)S/C1=C\c1ccc(F)cc1O [CLP257, (5Z)-5-[(4-Fluoro-2-hydroxyphenyl)methylene]-2-(tetrahydro-1-(2H)-pyridazinyl)-4(5H)-thiazolone] | +19.00±15.00% | −6.92±11.80 | −19.70±34.40 | −12.70±10.90 | −18.50±17.10 | +33.30±24.00% | −5.97±17.4 |  |  |  |  |  | 
CN1CCN(CCCN2c3ccccc3Sc3ccc(Cl)cc32)CC1 [PCPZ, prochlorperazine] |  |  |  |  |  |  |  | +6.38±14.7% | +12.1±32.8% | +20.30±18.70% | −10.20±10.40 | +26.40%±17.00 | +36.90±48.40%
